Earlier results as cited in patent publication US20250163027A1, “GPR88-RECEPTOR-AGONIST” (Boehringer Ingelheim International GmbH, priority 2023, published 2025).

Target: hGPR88 receptor (Homo sapiens, UniProt Q9GZN0)
Details: value marked * : cAMP assay, not BRET

Sequence of hGPR88 receptor (Q9GZN0 whole entry): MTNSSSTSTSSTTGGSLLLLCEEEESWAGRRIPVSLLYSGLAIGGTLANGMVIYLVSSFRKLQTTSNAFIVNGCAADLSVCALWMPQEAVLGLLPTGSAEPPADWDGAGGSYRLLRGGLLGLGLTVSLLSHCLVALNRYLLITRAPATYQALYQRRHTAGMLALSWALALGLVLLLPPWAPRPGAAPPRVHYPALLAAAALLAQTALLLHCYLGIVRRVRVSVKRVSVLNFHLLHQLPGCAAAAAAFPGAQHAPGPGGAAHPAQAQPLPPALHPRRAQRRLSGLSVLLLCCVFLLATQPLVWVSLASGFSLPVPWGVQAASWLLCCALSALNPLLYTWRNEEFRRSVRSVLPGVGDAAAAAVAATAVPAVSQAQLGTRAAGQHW

- EC50: > 5 µM
Compound: COCc1ccc(-c2ccc(N(CC(C)(C)O)C(=O)C3CC3c3ccccn3)cc2)cc1 (stereo not shown) [Ex 141 in WO2022/129933]
